Laboratory results taken from patent publication US20110217713A1 (On-Q-ity, priority 2010, published 2011).

Test system: non-small cell lung cancer patient specimens (adenocarcinomas and squamous cell carcinoma)
Assay: International Adjuvant Lung Trial (IALT): cisplatin-based therapy vs observation, DFS/OS against IHC DNA repair biomarker Q-scores (Cox PH models)
Type: in vivo, human
Experimental: An immunohistochemical evaluation of DNA Repair Proteins was conducted on a large international patient specimen collection from the IALT trial (International Adjuvant Lung Trial). This clinical trial originally comprised approximately 1867 non-small cell lung cancer patient specimens (adenocarcinomas and squamous cell carcinoma) and was designed to test clinical parameters for patients receiving either cisplatin-based therapy or those considered observation. One problem with testing of biomarkers in general from clinical trials is that the patient population treatments are generally a mixture of several different treatments and combinations of such and so results may be confounded by interactions of various treatments. However, the IALT trial represents pristine treatment arms of cisplatin and observation and thus is relatively free of confounding affects due to treatment variation.
International Adjuvant Lung Cancer Trial (IALT) NSCLC FFPE patient specimens constructed on TMAs (13 total) were stained by IHC for DNA repair biomarkers: ATM, MSH2, ERCC1, p53, pMK2, PARP1, BRCA1, XPF. An average of 603 patients were analyzed for each biomarker. Tumor biomarker nuclear or cytoplasmic levels were determined using digital image user defined macros. Scores were generated based on weighted intensity and quantity of stained cells. In reference to accompanying diagrams in the Powerpoint files, please note that a wide dynamic range achieved during assay development and optimization in commercially available TMAs is translationally achieved when patients comprising this study population are stained, annotated for tumor region and scored by user-defined macros.
Previous studies have utilized standard pathologist-based scoring, thus we chose to optimize the IHC-based assessment of biomarker levels using digital pathology and weighted scoring. This endeavor is undertaken so that for a given population a continuum of scores (herein referred to as Q-scores) with a broad dynamic range may be generated by user defined macros. Here, scoring of individual tumor cells comprising each patient specimen is generated and then patients assembled into a population continuum of scores against which finer cut-points may tested and established rather than crude binning methods as employed in previous studies.
Q-score=10*(% of 10+cells)+9*(% of 9+cells)+8*(% of 8+cells)+7*(% of 7+cells) . . . 1*(% of 1+cells)
Cox PH models adjusted for relevant clinical and stratification variables were used in the univariate analyses of Disease-Free Survival (DFS) and Overall Survival (OS). Initial analyses were conducted using biomarker Q scores as continuous variables against clinical endpoint metrics.

[1] = ERCC1 model, ADENOCARCINOMA, Without variables
[2] = ERCC1 model, SQUAMOUS CELLS, With adjustment variables
[3] = ERCC1 model, SQUAMOUS CELLS, With selected variables
[4] = ERCC1 model, SQUAMOUS CELLS, Without variables
[5] = Mean Q score PMK2 nuclear (PMK2MN), Adenocarcinoma, with adjustment variables
[6] = Mean Q score PMK2 nuclear (PMK2MN), Adenocarcinoma, with selected variables
[7] = Mean Q score PMK2 nuclear (PMK2MN), Adenocarcinoma, without variables
[8] = Mean Q score PMK2 nuclear (PMK2MN), Squamous Cells, with adjustment variables
[9] = Mean Q score PMK2 nuclear (PMK2MN), Squamous Cells, with selected variables
[10] = Mean Q score PMK2 nuclear (PMK2MN), Squamous Cells, without variables
[11] = Mean Q score of PMK2 cytoplasm divided by nuclear (PMK2MCNp), Adenocarcinoma, with adjustment variables
[12] = Mean Q score of PMK2 cytoplasm divided by nuclear (PMK2MCNp), Adenocarcinoma, with selected variables
[13] = Mean Q score of PMK2 cytoplasm divided by nuclear (PMK2MCNp), Adenocarcinoma, without variables
[14] = Mean Q score sum of PMK2 cytoplasm & nuclear (PMK2MCNs), Adenocarcinoma, with adjustment variables
[15] = Mean Q score sum of PMK2 cytoplasm & nuclear (PMK2MCNs), Adenocarcinoma, with selected variables
[16] = Mean Q score sum of PMK2 cytoplasm & nuclear (PMK2MCNs), Adenocarcinoma, without variables
[17] = Mean Q score sum of PMK2 cytoplasm & nuclear (PMK2MCNs), Squamous Cells, with adjustment variables
[18] = Mean Q score sum of PMK2 cytoplasm & nuclear (PMK2MCNs), Squamous Cells, with selected variables
[19] = Mean Q score sum of PMK2 cytoplasm & nuclear (PMK2MCNs), Squamous Cells, without variables
[20] = Overall Survival, MEAN Q SCORE PMK2 CYTOPLASM, Adenocarcinoma, With adjustment variables
[21] = Overall Survival, MEAN Q SCORE PMK2 CYTOPLASM, Adenocarcinoma, With selected variables
[22] = Overall Survival, MEAN Q SCORE PMK2 CYTOPLASM, Adenocarcinoma, Without variables
[23] = Overall Survival, MEAN Q SCORE PMK2 CYTOPLASM, Squamous Cells, With selected variables
[24] = Overall Survival, MEAN Q SCORE PMK2 CYTOPLASM, Squamous Cells, Without variables
[25] = PARP1 model, SQUAMOUS CELLS, With adjustment variables
[26] = PARP1 model, SQUAMOUS CELLS, With selected variables
[27] = PARP1 model, SQUAMOUS CELLS, Without variables
[28] = XPF model, ADENOCARCINOMA, With adjustment variables
[29] = XPF model, ADENOCARCINOMA, With selected variables
[30] = XPF model, ADENOCARCINOMA, Without variables
[31] = XPF model, SQUAMOUS CELLS, With adjustment variables
[32] = XPF model, SQUAMOUS CELLS, With selected variables
[33] = XPF model, SQUAMOUS CELLS, Without variables

## N.N.[Cl][Pt][Cl] [cisplatin]
ERCC1 model, ADENOCARCINOMA, With selected variables
  HazardRatio, Treatment: 0.765
[1]
  HazardRatio, ERCC1_Treatment: 1.024
  HazardRatio, Treatment: 1.040
[2]
  HazardRatio, ERCC1_Treatment: 1.070
  HazardRatio, Treatment: 0.731
[3]
  HazardRatio, ERCC1_Treatment: 1.052
  HazardRatio, Treatment: 0.781
[4]
  HazardRatio, ERCC1_Treatment: 1.054
  HazardRatio, Treatment: 0.773
[5]
  HazardRatio, PMK2MN_Treatment interaction (Disease Free Survival): 1.077
  HazardRatio, Treatment (Disease Free Survival): 0.811
[6]
  HazardRatio, PMK2MN_Treatment interaction (Disease Free Survival): 1.084
  HazardRatio, Treatment (Disease Free Survival): 0.802
[7]
  HazardRatio, PMK2MN_Treatment interaction (Disease Free Survival): 0.956
  HazardRatio, Treatment (Disease Free Survival): 1.146
[8]
  HazardRatio, PMK2MN_Treatment interaction (Disease Free Survival): 1.145
  HazardRatio, Treatment (Disease Free Survival): 0.737
[9]
  HazardRatio, PMK2MN_Treatment interaction (Disease Free Survival): 1.145
  HazardRatio, Treatment (Disease Free Survival): 0.750
[10]
  HazardRatio, PMK2MN_Treatment interaction (Disease Free Survival): 1.111
  HazardRatio, Treatment (Disease Free Survival): 0.780
[11]
  HazardRatio, PMK2MCNp_Treatment interaction (Disease Free Survival): 0.000
  HazardRatio, Treatment (Disease Free Survival): 0.954
[12]
  HazardRatio, PMK2MCNp_Treatment interaction (Disease Free Survival): 0.000
  HazardRatio, Treatment (Disease Free Survival): 0.992
[13]
  HazardRatio, PMK2MCNp_Treatment interaction (Disease Free Survival): 0.000
  HazardRatio, Treatment (Disease Free Survival): 1.177
Mean Q score of PMK2 cytoplasm divided by nuclear (PMK2MCNp), Squamous Cells, with adjustment variables
  HazardRatio, Treatment (Disease Free Survival): 0.612
Mean Q score of PMK2 cytoplasm divided by nuclear (PMK2MCNp), Squamous Cells, with selected variables
  HazardRatio, Treatment (Disease Free Survival): 0.645
Mean Q score of PMK2 cytoplasm divided by nuclear (PMK2MCNp), Squamous Cells, without variables
  HazardRatio, Treatment (Disease Free Survival): 0.726
[14]
  HazardRatio, PMK2MCNs_Treatment interaction (Disease Free Survival): 1.041
  HazardRatio, Treatment (Disease Free Survival): 0.832
[15]
  HazardRatio, PMK2MCNs_Treatment interaction (Disease Free Survival): 1.044
  HazardRatio, Treatment (Disease Free Survival): 0.828
[16]
  HazardRatio, PMK2MCNs_Treatment interaction (Disease Free Survival): 0.939
  HazardRatio, Treatment (Disease Free Survival): 1.203
[17]
  HazardRatio, PMK2MCNs_Treatment interaction (Disease Free Survival): 1.091
  HazardRatio, Treatment (Disease Free Survival): 0.751
[18]
  HazardRatio, PMK2MCNs_Treatment interaction (Disease Free Survival): 1.090
  HazardRatio, Treatment (Disease Free Survival): 0.766
[19]
  HazardRatio, PMK2MCNs_Treatment interaction (Disease Free Survival): 1.066
  HazardRatio, Treatment (Disease Free Survival): 0.798
[20]
  HazardRatio, PMK2MC_Treatrnent: 1.001
  HazardRatio, Treatment: 0.883
[21]
  HazardRatio, PMK2MC_Treatment: 0.972
  HazardRatio, Treatment: 0.891
[22]
  HazardRatio, PMK2MC_Treatment: 0.639
  HazardRatio, Treatment: 1.264
[23]
  HazardRatio, PMK2MC_Treatment: 1.240
  HazardRatio, Treatment: 0.803
[24]
  HazardRatio, PMK2MC_Treatment: 1.147
  HazardRatio, Treatment: 0.835
[25]
  HazardRatio, PARP1_Treatment: 1.082
  HazardRatio, Treatment: 0.621
[26]
  HazardRatio, PARP1_Treatment: 1.062
  HazardRatio, Treatment: 0.687
[27]
  HazardRatio, PARP1_Treatment: 1.107
  HazardRatio, Treatment: 0.572
SCC, univariate Cox PH, biomarker Q score, DFS primary endpoint, OS secondary, p=0.005, 95% CI 1.035-1.212
  predictive HR, p53: 1.120
SCC, univariate Cox PH, biomarker Q score, DFS primary endpoint, OS secondary, p=0.010, 95% CI 1.046-1.405
  predictive HR, ATM: 1.212
SCC, univariate Cox PH, biomarker Q score, DFS primary endpoint, OS secondary, p=0.012, 95% CI 1.044-1.42
  predictive HR, MSH2: 1.218
[28]
  HazardRatio, Treatment: 0.628
  HazardRatio, XPF_Treatment: 1.179
[29]
  HazardRatio, Treatment: 0.689
  HazardRatio, XPF_Treatment: 1.166
[30]
  HazardRatio, Treatment: 0.900
  HazardRatio, XPF_Treatment: 1.080
[31]
  HazardRatio, Treatment: 0.813
  HazardRatio, XPF_Treatment: 1.030
[32]
  HazardRatio, Treatment: 0.820
  HazardRatio, XPF_Treatment: 1.035
[33]
  HazardRatio, Treatment: 0.759
  HazardRatio, XPF_Treatment: 1.063
